The data set is described as follows: Tissue distribution of compound A26 in mice (plasma / cerebrospinal fluid drug concentration). As to conditions: for Kp at 0.25 h / Kp at 0.5 h / concentration at 15 min / concentration at 30 min: mouse; for Kp at 0.25 h / Kp at 0.5 h: brain/plasma, read-out: Brain to plasma drug concentration ratio (Cbrain/Cplasma); for Kp at 0.25 h / concentration at 15 min: 15 min; for Kp at 0.5 h / concentration at 30 min: 30 min. The class given is in vivo. How it is done:
The drug concentrations in plasma or cerebrospinal fluid at two time points of 15 minutes and 30 minutes under three administration routes: oral (20 mg/kg), intraperitoneal injection (10 mg/kg), and intravenous injection (5 mg/kg) were measured.

Where [1] appears, read: cerebrospinal fluid, IP 10 mg/kg, read-out: cerebrospinal fluid.
[2] abbreviates: cerebrospinal fluid, IV 5 mg/kg, read-out: cerebrospinal fluid.
[3] abbreviates: cerebrospinal fluid, PO 20 mg/kg, read-out: cerebrospinal fluid.
The mark [4] stands for this setting: plasma, IP 10 mg/kg, read-out: Cardiac plasma.
The mark [5] stands for this setting: plasma, IV 5 mg/kg, read-out: Cardiac plasma.
Setting [6] is: plasma, PO 20 mg/kg, read-out: Cardiac plasma.

Like-named read-outs stand apart in the source and are kept apart here.

On to `COc1cc2c(cc1OC)C(CCc1c[nH]c3ccccc13)N(CC1CCOCC1)CC2` (stereo not shown) [Compound A26, 1-(2-(1H-indol-3-yl)ethyl)-6,7-dimethoxy-2-((tetrahydro-2H-pyran-4-yl)methyl)-1,2,3,4-tetrahydroisoquinoline], for which the “blood-brain barrier penetration ability and brain targeting property” value (conclusion from brain/plasma ratios) was “good”. Besides, the Kp at 0.25 h is, setting by setting: (IP 10 mg/kg) 2.12; (IV 5 mg/kg) 3.3; (PO 20 mg/kg) 3.4. The Kp at 0.5 h runs as follows: (IP 10 mg/kg) 1.91; (IV 5 mg/kg) 2.2; (PO 20 mg/kg) 1.6. Besides, the concentration at 15 min came to 665 ± 49 ng/g under setting [1]; 1560 ± 245 ng/g under setting [2]; 224 ± 363 ng/g under setting [3]; 313 ± 15 ng/mL under setting [4]; 466 ± 85 ng/mL under setting [5]; 65.3 ± 94.7 ng/mL under setting [6]. Also, the concentration at 30 min is, setting by setting: under setting [1], 355 ± 106 ng/g; under setting [2], 292 ± 69 ng/g; under setting [3], 32.4 ± 11.9 ng/g; under setting [4], 186 ± 57 ng/mL; under setting [5], 135 ± 47 ng/mL; under setting [6], 20.7 ± 6.1 ng/mL.
